Assay results from US20170081331A1, “Pyrazolopyrazines and their use in the treatment, amelioration or prevention of a viral disease” (F. Hoffmann-La Roche AG, priority 2015, published 2017).
Read-outs that look alike come from different tables or passages of the source.

Tests used:
[1] = target: T1, influenza A virus (IAV) PA-Nter fragment (amino acids 1-209) (Influenza A virus, UniProt P31343); assay: FRET endonuclease activity assay; format: biochemical; settings: PA-Nter 0.5 μM, 1.6 μM RNA substrate; from initial reaction velocities (v0)
T1 construct: PA-Nter fragment (amino acids 1-209); made in house

[2] = target: whole RNP complex of IAV strain A/PR/8/34 (Influenza A virus, UniProt P03433); assay: Transcription assay (TA assay), Quantigene detection of de novo viral mRNA; format: biochemical, influenza A virus A/PR/8/34; settings: 80 pM RNPs, 2 nM capped RNA substrate, cell-free

Row | SMILES | IC50 [1] | IC50 ([2]; read-out: TA assay IC50) | further results
1 | CC(C)N1CC(C)n2c(c(O)c(=O)n2Cc2ccccc2)C1=O (stereo not shown) | 2.63 µM |  | 
2 | CC(C)N1CC(Cc2ccccc2)n2nc(C(=O)O)c(O)c2C1=O (stereo not shown) |  | 13.2 µM | 
3 | CN1CC(Cc2ccccc2)n2nc(C(=O)O)c(O)c2C1=O (stereo not shown) |  | 25.5 µM | 
4 | O=C(O)c1nn2c(c1OCc1ccccc1)C(=O)NCC2 |  | 0.532 µM | 
5 | CC(C)N1CCn2c(c(O)c(=O)n2Cc2ccccc2)C1=O | 12.4 µM |  | 
6 | O=C(O)c1nn2c(c1O)C(=O)NCC2Cc1ccccc1 (stereo not shown) |  | 35.1 µM | 
7 | COC(=O)c1nn2c(c1O)C(=O)N(C(C)C)CC2 |  |  | IC50 ([2]; read-out: TA IC50 (unit inferred)): 79.6 µM
8 | CC(C)N1CC(c2ccccc2)n2c(c(O)c(=O)n2Cc2ccccc2)C1=O (stereo not shown) |  | 5.85 µM | 
9 | CC(C)N1CCn2[nH]c(=O)c(O)c2C1=O | 1.31 µM |  | 
10 | CC(C)N1CCn2c(c(O)c(=O)n2CCc2ccccc2)C1=O | 7.54 µM |  | 
